What all share (format): in vivo
Assay [1] concerns Human Panelists. Nature of the assay: Sweet flavor enhancement, human panelists, paired comparison test. The protocol: (§1) Test samples containing experimental compounds are presented in pairs to the panelist and they are asked to determine which of the sample is sweeter. A group of 10-16 or more panelists participated in each test. Subjects refrained from eating or drinking (except water) for at least 1 hour prior to the test. Subjects rinsed with water several times to clean the mouth.
All samples are prepared with ethanol to ensure dispersion of the compound in solution. This includes samples without compound; all solutions are balanced for 0.1% ethanol.
Samples are also prepared with low sodium buffer (pH 7.1) in place of water. Buffer contains 0.952 g of KCl, 5.444 g of Na2HPO4, and 0.952 g of KH2PO4 in 40 L of DIUF water. Sample volumes are usually 20 ml.
(§2) In one paired comparison test, the panelist is presented with two different samples and asked to identify the sample which is sweeter. The samples within a paired comparison test are presented in a randomized, counterbalanced order. Panelists have up to a 1 minute delay between taste tests to clear the mouth of any tastes.
(§3) Binomial probability tables are used to determine the probability of the correct number of responses occurring for each test at alpha=0.05

Assay [2] has as its system Human Panelists. Nature of the assay: Sweet flavor enhancement, human panelists, scaling test. The note with it: 0 to 15 scale, n = 30. From the text:
Test samples containing experimental compounds were compared to a dose-response curve for perceived sweetness intensity of sweeteners (sucralose, sucrose, fructose and other sweeteners) concentrations to determine equivalent sweetness intensity.
A group of eight or more panelists tasted solutions including sweeteners at various concentrations, as well as the experimental compound both with and without added sweetener. Panelists then rated sweetness intensity of all samples on a structured horizontal line scale, anchored from 0 to 15, where 0 equals no sweetness and 15 equals equivalent sweetness to a 15% sucrose sample. Scores for sweetness intensity were averaged across panelists. Then using the average scores and/or equation of the line for the sweetener dose-response curve, equivalent sweetness concentrations were determined for the samples containing experimental compounds.
Subjects had been previously familiarized with the key attribute taste and were trained to use the 0 to 15 point line scale. Subjects refrained from eating or drinking (except water) for at least 1 hour prior to the test. Subjects ate a cracker and rinsed with water several times to clean the mouth.
Sweetener solutions are provided at a wide range of concentrations such as 100 ppm, 200 ppm, 300 ppm, 400 ppm, and 500 ppm for sucralose, or between 0% and 12% for sucrose or fructose, in order to create a dose-response curve. Samples containing experimental compound were prepared both alone and in a 100 ppm sucralose solution or a 6% sucrose or fructose solution. All samples were made up in low sodium buffer pH 7.1. In order to aid dispersion, solutions can be made up in 0.1% ethanol.
The solutions were dispensed in 20 ml volumes into 1 oz. sample cups and served to the subjects at room temperature. All samples were presented in randomized counterbalanced order to reduce response bias. Further, two sessions of testing may be used to check panel precision.
Subjects tasted each sample individually and rate sweetness intensity on the line scale prior to tasting the next sample. All samples were expectorated. Subjects may retaste the samples but can only use the volume of sample given. Subjects must rinse with water between samples. Eating an unsalted cracker between samples may be required depending on the samples tasted.
The scores for each sample were averaged across subjects and standard error was calculated. The dose-response curve was plotted graphically, and this may be used to ensure the panel is rating accurately; i.e., increasing the concentration of sucralose should correspond to increased average scores for sweetness. […]

The subject of assay [3] is Human Panelists. Description: Paired comparison test with Compound D5 in product prototype (drinks). The protocol:
as §1, §2, §3
Human panelists evaluated various drinks (e.g., tea, coffee, Kool-Aid) in paired comparison taste test procedure.

Experimental findings from US9834544B2, “Sweet flavor modifier” (SENOMYX, INC., priority 2011, dated 2017) are described below.

With `OC[C@H]1O[C@@](CO)(O[C@H]2O[C@H](CO)[C@@H](O)[C@H](O)[C@H]2O)[C@@H](O)[C@@H]1O` [Sucrose], the “Sample selected as sweeter by panelists, Total” value (shortened to “Sample selected as sweeter”) stood at 43 in the assay with Human Panelists [1] (1% Sucrose vs LSB + 27.8 μM Compound D5, n = 45); 44 in the assay on Human Panelists [1] (1% Sucrose vs LSB + 27.8 μM Compound Y5, n = 45); 21 with Human Panelists [1] (1% Sucrose vs LSB + 111.3 μM Compound D5, n = 29); 13 in the assay on Human Panelists [1] (10% Sucrose vs 6% Sucrose + 24.9 μM Compound E5, n = 39); 14 in the assay on Human Panelists [1] (10% Sucrose vs 6% Sucrose + 26.8 μM Compound L6, n = 45); 9 in the assay on Human Panelists [1] (10% Sucrose vs 6% Sucrose + 26.9 μM Compound A6, n = 45). The “Sample selected as sweeter” value in the assay with Human Panelists [1] (10% Sucrose vs 6% Sucrose + 26.9 μM Compound Q5, n = 48) is recorded as 13; with Human Panelists [1] (10% Sucrose vs 6% Sucrose + 26.9 μM Compound R5, n = 42), 16; with Human Panelists [1] (10% Sucrose vs 6% Sucrose + 27.8 μM Compound D5, n = 45), 13; in the assay on Human Panelists [1] (10% Sucrose vs 6% Sucrose + 27.8 μM Compound Y5, n = 11 (11 panelists × 2 reps)), 8; in the assay on Human Panelists [1] (10% Sucrose vs 6% Sucrose + 27.9 μM Compound K5, n = 45), 11; with Human Panelists [1] (10% Sucrose vs 6% Sucrose + 28.9 μM Compound E6, n = 39), 18. Further, the “Sample selected as sweeter” value in the assay with Human Panelists [3] (8% Sucrose Brewed Neutral Black Tea vs 4% Sucrose Brewed Neutral Black Tea + 30.6 μM Compound D5, n = 39) was found to be 22; in the assay on Human Panelists [3] (8% Sucrose Coffee Drink vs 4% Sucrose Coffee Drink + 23.65 μM Compound D5, n = 39), 20; in the assay with Human Panelists [3] (10% Sucrose Cherry Kool-Aid vs 5% Sucrose Cherry Kool-Aid + 41.7 μM Compound D5, n = 33) it was 18; in the assay with Human Panelists [3] (10% Sucrose Lemonade Kool-Aid vs 5% Sucrose Lemonade Kool-Aid + 41.7 μM Compound D5, n = 48), 27. Further, the “Average Sweetness” value in the assay with Human Panelists [2] (6% Sucrose) is reported as 6.6; in the assay with Human Panelists [2] (8% Sucrose), 8.1; with Human Panelists [2] (10% Sucrose), 9.8; in the assay with Human Panelists [2] (12% Sucrose) it was 11.0.
